According to US20250235448A1, “COMBINATION THERAPY FOR TREATING CANCER” (AstraZeneca AB, priority 2022, published 2025):
Read-outs that look alike come from different tables or passages of the source.

What was measured:
CWR22Pc-R1-AD1 = experiment: Cell proliferation / viability assay (7 days after treatment), AC50 and HSA combination benefit; type: cell-based
Procedure: (§1) The following cell lines were originally obtained from ATCC:
Cell line identification was validated using the CellCheck assay (IDEXX Bioanalytics, Westbrook, ME, USA). All cell lines were validated free of virus Mycoplasma contamination using the MycoSEQ assay (Thermo Fisher Scientific, Waltham, MA, USA) or STAT-Myco assay (IDEXX Bioanalytics).
Live cell count pre- and post-treatment (7 days after treatment) was determined using CellTiter-Glo as per manufacturer's instructions (Promega, Madison, WI, USA; G7570).

LnCAP = experiment: as above; type: cell-based; conditions: Homo sapiens; LnCAP (mHSPC) cells; monotherapy; mean of two independent experiments each in triplicate
Procedure: as §1
(§2) Cell line identification was validated using the CellCheck assay (IDEXX Bioanalytics, Westbrook, ME, USA). All cell lines were validated free of virus Mycoplasma contamination using the MycoSEQ assay (Thermo Fisher Scientific, Waltham, MA, USA) or STAT-Myco assay (IDEXX Bioanalytics). All cell lines were grown RPMI-1640 growth media (Corning 17-105-CV) supplemented with 10% fetal bovine serum (FBS) or, when indicated, 10% charcoal stripped FBS (ThermoFisher Scientific, 12676029) and 2 mM glutamine.
(§3) Cells in 384-well or 96-well plates were dosed using an Echo 555 (LabCyte, San Jose, CA, USA) or using the HP D300e Digital Dispenser (HP Life Science Dispensing), respectively. Live cell count pre- and post-treatment (7 days after treatment) was determined using CellTiter-Glo as per manufacturer's instructions (Promega, Madison, WI, USA; G7570).
(§4) Cell viability was determined with the Sytox Green assay as described in Davies 2012 and the AC50 calculated. The HSA (Highest Single Agent) Synergy Score was calculated according to Bernenbaum 1989.

LnCAP 95 = experiment: as above; type: cell-based; conditions: LnCAP 95 (mCRPC) cells; monotherapy; mean of two independent experiments each in triplicate
Procedure: as §1, §2, §3, §4

non-metastatic CRPC = conditions: patients with non-metastatic CRPC, ARAMIS trial; placebo 18.5 months; cited from earlier work
CYP3A4 = conditions: literature statement (Gibbons 2015, Dirix 2016); cited from earlier work

CCc1cc2ncc(CN3CCN(c4ccc(C(=O)NC)nc4)CC3)cc2[nH]c1=O [AZD5305, 5-{4-[(7-ethyl-6-oxo-5,6-dihydro-1,5-naphthyridin-3-yl)methyl]piperazin-1-yl}-N-methylpyridine-2-carboxamide]
AC50 (CWR22Pc-R1-AD1; CWR22Pc-R1-AD1 (mCRPC) cells, monotherapy, mean of two independent experiments each in triplicate, read-out: AC50): 5.66 nM | AC50 (LnCAP): 285 nM | AC50 (LnCAP 95): 700 nM

CC(O)c1cc(C(=O)N[C@@H](C)Cn2ccc(-c3ccc(C#N)c(Cl)c3)n2)n[nH]1 (stereo partly drawn) [Darolutamide, N—((S)-1-(3-(3-chloro-4-cyanophenyl)-1H-pyrazol-1-yl)propan-2-yl)-5-(1-hydroxyethyl)-1H-pyrazole-3-carboxamide]
AC50 (CWR22Pc-R1-AD1): 65.5 nM | metastasis free survival (non-metastatic CRPC): 40.4 months | AC50 (LnCAP): 3630 nM | AC50 (LnCAP 95): 17500 nM

O=C(c1cc(Cc2n[nH]c(=O)c3ccccc23)ccc1F)N1CCN(C(=O)C2CC2)CC1 [Olaparib]
CYP3A4 interaction (inducer / substrate) (CYP3A4): substrate of CYP3A4

CNC(=O)c1ccc(N2C(=S)N(c3ccc(C#N)c(C(F)(F)F)c3)C(=O)C2(C)C)cc1F [enzalutamide]
CYP3A4 interaction (inducer / substrate) (CYP3A4): strong CYP3A4 inducer
